# Reference: patent US4861788A, “Antibacterial 1-normon-2-yl-heterocyclic compounds” (Beecham Group plc, priority 1983, dated 1989)
# Like-named read-outs stand apart in the source and are kept apart here.
# Experiments:
# Strep. agalactiae SPA1 = assay: MIC against veterinary bacteria in vitro (Diagnostic Sensitivity Test Agar); conditions: Streptococcus agalactiae, SPA1, 18 h
# Protocol: (§1) The activity of the normonyl derivatives of the Examples against various veterinarily important bacteria, was assayed in vitro using two-fold serial dilutions in Diagnostic Sensitivity Test Agar inoculated with 10^4 organisms.
# M. hyorhinis ATCC 25021 = assay: MIC against Mycoplasma in vitro (Friis broth with agarose); type: cell-based; conditions: Mesomycoplasma hyorhinis, ATCC25021, 144 h; M. hyorhinis ATCC 25021; 6 days at 37° C; read-out: MIC
# Past. multocida PA1 = assay: MIC against veterinary bacteria in vitro (Diagnostic Sensitivity Test Agar); conditions: Pasteurella multocida, PA1, 18 h
# Protocol: as §1
# M. gallisepticum S6 = assay: MIC against Mycoplasma in vitro (Friis broth with agarose); type: cell-based; conditions: Mycoplasmoides gallisepticum, 144 h; M. gallisepticum S6; 6 days at 37° C; read-out: MIC
# [1] = test system: Strep. suis (group D) SPS11; assay: MIC against veterinary bacteria in vitro (Diagnostic Sensitivity Test Agar); conditions: Streptococcus suis, 18 h
# Protocol: as §1
# E. coli NCTC 10418 = assay: as above; conditions: Escherichia coli, NCTC10418, 18 h
# Protocol: as §1
# [2] = test system: M. hyopneumoniae ATCC 25095; assay: MIC against Mycoplasma in vitro (Friis broth with agarose); type: cell-based; conditions: Mesomycoplasma hyopneumoniae, ATCC25095, 144 h; M. hyopneumoniae ATCC 25095; 6 days at 37° C; read-out: MIC
# Past. multocida PA2 = assay: MIC against veterinary bacteria in vitro (Diagnostic Sensitivity Test Agar); conditions: Pasteurella multocida, PA2, 18 h
# Protocol: as §1
# S. dublin S7 = assay: as above; conditions: Salmonella enterica, S7, 18 h
# Protocol: as §1
# [3] = test system: M. bovigenitalium ATCC 14173; assay: MIC against Mycoplasma in vitro (Friis broth with agarose); type: cell-based; conditions: 144 h; M. bovigenitalium ATCC 14173; 6 days at 37° C; read-out: MIC
# Strep. uberis SPU1 = assay: MIC against veterinary bacteria in vitro (Diagnostic Sensitivity Test Agar); conditions: Streptococcus uberis, SPU1, 18 h
# Protocol: as §1
# [4] = test system: M. hyosynoviae ATCC 25591; assay: MIC against Mycoplasma in vitro (Friis broth with agarose); type: cell-based; conditions: 144 h; M. hyosynoviae ATCC 25591; 6 days at 37° C; read-out: MIC
# M. hyopneumoniae TAM 6N = assay: as above; type: cell-based; conditions: Mesomycoplasma hyopneumoniae, TAM6N, 144 h; M. hyopneumoniae TAM 6N; 6 days at 37° C; read-out: MIC
# Past. haemolytica PA5 = assay: MIC against veterinary bacteria in vitro (Diagnostic Sensitivity Test Agar); conditions: Mannheimia haemolytica, PA5, 18 h
# Protocol: as §1
# M. hyopneumoniae JF 435 = assay: MIC against Mycoplasma in vitro (Friis broth with agarose); type: cell-based; conditions: Mesomycoplasma hyopneumoniae, JF435, 144 h; M. hyopneumoniae JF 435; 6 days at 37° C; read-out: MIC
# [5] = test system: Corynebacterium pyogenes CY1; assay: MIC against veterinary bacteria in vitro (Diagnostic Sensitivity Test Agar); conditions: CY1, 18 h
# Protocol: as §1
# M. pneumoniae ATCC 15492 = assay: MIC against Mycoplasma in vitro (Friis broth with agarose); type: cell-based; conditions: Mycoplasmoides pneumoniae, ATCC15492, 144 h; M. pneumoniae ATCC 15492; 6 days at 37° C; read-out: MIC
# M. hyopneumoniae MS 16 = assay: as above; type: cell-based; conditions: Mesomycoplasma hyopneumoniae, MS16, 144 h; M. hyopneumoniae MS 16; 6 days at 37° C; read-out: MIC
# M. hyorhinis ATCC 23234 = assay: as above; type: cell-based; conditions: Mesomycoplasma hyorhinis, ATCC23234, 144 h; M. hyorhinis ATCC 23234; 6 days at 37° C; read-out: MIC
# [6] = test system: Staph. aureus 152 (pen. sens); assay: MIC against veterinary bacteria in vitro (Diagnostic Sensitivity Test Agar); conditions: Staphylococcus aureus, 18 h
# Protocol: as §1
# Staph. aureus Oxford = assay: as above; conditions: Staphylococcus aureus, 18 h
# Protocol: as §1
# [7] = test system: Staph. aureus B4 (pen. resistant); assay: as above; conditions: Staphylococcus aureus, 18 h
# Protocol: as §1
# E. coli E1 = assay: as above; conditions: Escherichia coli, E1, 18 h
# Protocol: as §1
# M. dispar NCTC 10125 = assay: MIC against Mycoplasma in vitro (Friis broth with agarose); type: cell-based; conditions: 144 h
# S. typhimurium S18 = assay: MIC against veterinary bacteria in vitro (Diagnostic Sensitivity Test Agar); conditions: Salmonella enterica, 18 h
# Protocol: as §1
# M. hyopneumoniae UCD 1 = assay: MIC against Mycoplasma in vitro (Friis broth with agarose); type: cell-based; conditions: Mesomycoplasma hyopneumoniae, UCD1, 144 h
# Bord. bronchiseptica B09 = assay: MIC against veterinary bacteria in vitro (Diagnostic Sensitivity Test Agar); conditions: Bordetella bronchiseptica, B09, 18 h
# Protocol: as §1
# M. bovis NCTC 10131 = assay: microbe, parasite or virus in culture; type: cell-based; conditions: NCTC10131, 144 h
# [8] = test system: Erysipelothrix rhusiopathiae NCTC 8163; assay: MIC against veterinary bacteria in vitro (Diagnostic Sensitivity Test Agar); conditions: NCTC8163, 18 h
# Protocol: as §1
# Bord. bronchiseptica B08 = assay: as above; conditions: Bordetella bronchiseptica, B08, 18 h
# Protocol: as §1
# [9] = M. dispar NCTC 10125, 6 days at 37° C, read-out: MIC
# [10] = M. hyopneumoniae UCD 1, 6 days at 37° C, read-out: MIC
SMILES,MIC (Strep. agalactiae SPA1) [µg/mL],MIC (M. hyorhinis ATCC 25021) [µg/mL],MIC (Past. multocida PA1) [µg/mL],MIC (M. gallisepticum S6) [µg/mL],MIC [1] [µg/mL],MIC (E. coli NCTC 10418) [µg/mL],MIC [2] [µg/mL],MIC (Past. multocida PA2) [µg/mL],MIC (S. dublin S7) [µg/mL],MIC (Strep. uberis SPU1) [µg/mL],MIC [4] [µg/mL],MIC (M. hyopneumoniae TAM 6N) [µg/mL],MIC (M. hyopneumoniae JF 435) [µg/mL],MIC [5] [µg/mL],MIC (M. pneumoniae ATCC 15492) [µg/mL],MIC (M. hyopneumoniae MS 16) [µg/mL],MIC (M. hyorhinis ATCC 23234) [µg/mL],MIC [6] [µg/mL],MIC (Staph. aureus Oxford) [µg/mL],MIC [7] [µg/mL],further results
"CC(=Cc1nnnn1CCCCCCCCC(=O)O)CC1OCC(CC2OC2C(C)C(C)O)C(O)C1O (stereo not drawn) [Example 14, Sodium 1-(8-carboxylatooctyl)-5-(1-normon-2-yl)-1H-tetrazole A]",> 80,> 10,80,> 10,> 80,> 80,> 10,1.25,> 80,> 80,> 10,> 10,> 10,> 80,> 10,> 10,> 10,> 80,> 80,> 80,MIC [3]: 10 µg/mL; MIC (Past. haemolytica PA5): > 80 µg/mL; MIC (E. coli E1): > 80 µg/mL; MIC (M. dispar NCTC 10125; [9]): 10 µg/mL; MIC (S. typhimurium S18): > 80 µg/mL; MIC (M. hyopneumoniae UCD 1; [10]): > 10 µg/mL; MIC (Bord. bronchiseptica B09): > 80 µg/mL; MIC (M. bovis NCTC 10131): 5 µg/mL; MIC [8]: > 80 µg/mL; MIC (Bord. bronchiseptica B08): > 80 µg/mL
"CC(=Cc1nnc(-c2ccc(S(C)(=O)=O)cc2)o1)CC1OCC(CC2OC2C(C)C(C)O)C(O)C1O (stereo not drawn) [Example 4, 2-p-Methylsulphonylphenyl-5-(1-normon-2-yl)-1,3,4-oxadiazole A]",10,0.1,2.5,> 10,80,> 80,0.25,1.25,> 80,2.5,1,0.5,0.25,> 80,> 10,0.1,0.1,5,10,5,MIC [3]: 0.25 µg/mL; MIC (Past. haemolytica PA5): 20 µg/mL; MIC (E. coli E1): > 80 µg/mL; MIC (S. typhimurium S18): > 80 µg/mL; MIC (M. hyopneumoniae UCD 1; [10]): 0.25 µg/mL; MIC (Bord. bronchiseptica B09): 10 µg/mL; MIC (M. bovis NCTC 10131): 0.05 µg/mL; MIC [8]: 40 µg/mL; MIC (Bord. bronchiseptica B08): > 80 µg/mL
"CC(=Cc1nnnn1Cc1ccc([N+](=O)[O-])cc1)CC1OCC(CC2OC2C(C)C(C)O)C(O)C1O (stereo not drawn) [Example 12, 1-(p-Nitrobenzyl)-5-(1-normon-2-yl)tetrazole A]",> 80,2.5,> 80,> 10,> 80,> 80,5,> 80,> 80,80,2.5,5,5,> 80,> 10,2.5,5,> 80,> 80,> 80,MIC (Past. haemolytica PA5): > 80 µg/mL; MIC (E. coli E1): > 80 µg/mL; MIC (M. dispar NCTC 10125): 1 µg/mL; MIC (S. typhimurium S18): > 80 µg/mL; MIC (M. hyopneumoniae UCD 1; [10]): 5 µg/mL; MIC (Bord. bronchiseptica B09): > 80 µg/mL; MIC (M. bovis NCTC 10131): 0.1 µg/mL; MIC [8]: > 80 µg/mL; MIC (Bord. bronchiseptica B08): > 80 µg/mL
"CC(=Cc1nnc(-c2cccnc2)o1)CC1OCC(CC2OC2C(C)C(C)O)C(O)C1O (stereo not drawn) [Example 5, 2-(1-Normon-2-yl)-5-(3-pyridyl)-1,3,4-oxadiazole A]",20,1,1.25,> 10,> 80,> 80,1,1.25,> 80,2.5,1,2.5,2.5,> 80,> 10,1,1,10,20,10,MIC [3]: 0.25 µg/mL; MIC (E. coli E1): > 80 µg/mL; MIC (M. dispar NCTC 10125; [9]): 0.5 µg/mL; MIC (S. typhimurium S18): > 80 µg/mL; MIC (M. hyopneumoniae UCD 1): 2.5 µg/mL; MIC (Bord. bronchiseptica B09): 20 µg/mL; MIC (M. bovis NCTC 10131): 0.025 µg/mL; MIC [8]: 80 µg/mL; MIC (Bord. bronchiseptica B08): > 80 µg/mL
